# Tests used:
# Test in all cases: Post-emergence efficacy, glasshouse spray test
# Format in all cases: in vivo
# Eleusine indica (ELEIN) = settings: Eleusine indica, post-emergence, 312 h, evaluated after 13 days, read-out: Control of weed species ELEIN after post-emergence application (100=total damage to plant; 0=no damage to plant); for pest or weed control at 500 g/ha: application rate 500 g/Ha; for pest or weed control at 1000 g/ha: application rate 1000 g/Ha
# Method in brief: (§1)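 Post-emergence spray, 14-d-old pot plants; glasshouse 24/16 °C d/n, 14 h light, 65% RH, watered twice daily. Read-out: % damage at 13 d.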
# [1] = test system: Chenopodium album (CHEAL); settings: Chenopodium album, post-emergence, 312 h, evaluated after 13 days, read-out: Control of weed species CHEAL after post-emergence application (100=total damage to plant; 0=no damage to plant); for pest or weed control at 500 g/ha: application rate 500 g/Ha; for pest or weed control at 1000 g/ha: application rate 1000 g/Ha
# Method in brief: as §1
# [2] = test system: Amaranthus palmeri (AMAPA); settings: Amaranthus palmeri, post-emergence, 312 h, evaluated after 13 days, read-out: Control of weed species AMAPA after post-emergence application (100=total damage to plant; 0=no damage to plant); for pest or weed control at 500 g/ha: application rate 500 g/Ha; for pest or weed control at 1000 g/ha: application rate 1000 g/Ha
# Method in brief: as §1
# [3] = test system: Euphorbia heterophylla (EPHHL); settings: Euphorbia heterophylla, post-emergence, 312 h, evaluated after 13 days, read-out: Control of weed species EPHHL after post-emergence application (100=total damage to plant; 0=no damage to plant); for pest or weed control at 500 g/ha: application rate 500 g/Ha; for pest or weed control at 1000 g/ha: application rate 1000 g/Ha
# Method in brief: as §1
# Lolium perenne (LOLPE) = settings: Lolium perenne, post-emergence, 312 h, evaluated after 13 days, read-out: Control of weed species LOLPE after post-emergence application (100=total damage to plant; 0=no damage to plant); for pest or weed control at 500 g/ha: application rate 500 g/Ha; for pest or weed control at 1000 g/ha: application rate 1000 g/Ha
# Method in brief: as §1
# [4] = test system: Digitaria sanguinalis (DIGSA); settings: Digitaria sanguinalis, post-emergence, 312 h, evaluated after 13 days, read-out: Control of weed species DIGSA after post-emergence application (100=total damage to plant; 0=no damage to plant); for pest or weed control at 500 g/ha: application rate 500 g/Ha; for pest or weed control at 1000 g/ha: application rate 1000 g/Ha
# Method in brief: as §1
# [5] = test system: Ipomoea hederacea (IPOHE); settings: Ipomoea hederacea, post-emergence, 312 h, evaluated after 13 days, read-out: Control of weed species IPOHE after post-emergence application (100=total damage to plant; 0=no damage to plant); for pest or weed control at 500 g/ha: application rate 500 g/Ha; for pest or weed control at 1000 g/ha: application rate 1000 g/Ha
# Method in brief: as §1
# Setaria faberi (SETFA) = settings: Setaria faberi, post-emergence, 312 h, evaluated after 13 days, read-out: Control of weed species SETFA after post-emergence application (100=total damage to plant; 0=no damage to plant); for pest or weed control at 500 g/ha: application rate 500 g/Ha; for pest or weed control at 1000 g/ha: application rate 1000 g/Ha
# Method in brief: as §1
# [6] = test system: Echinochloa crus-galli (ECHCG); settings: Echinochloa crus-galli, post-emergence, 312 h, evaluated after 13 days, read-out: Control of weed species ECHCG after post-emergence application (100=total damage to plant; 0=no damage to plant); for pest or weed control at 500 g/ha: application rate 500 g/Ha; for pest or weed control at 1000 g/ha: application rate 1000 g/Ha
# Method in brief: as §1
structure (smiles),measurement,setting,value
"CC(=O)Nc1cccc2cc[n+](CCS(=O)(=O)[O-])nc12 [Compound A107, 2-(8-acetamidocinnolin-2-ium-2-yl)ethanesulfonate]",pest or weed control at 130 g/ha,Eleusine indica (ELEIN); application rate 130 g/Ha,40%
same,pest or weed control at 130 g/ha,[1]; application rate 130 g/Ha,40%
same,pest or weed control at 130 g/ha,[2]; application rate 130 g/Ha,60%
same,pest or weed control at 130 g/ha,[3]; application rate 130 g/Ha,50%
same,pest or weed control at 130 g/ha,Lolium perenne (LOLPE); application rate 130 g/Ha,40%
same,pest or weed control at 130 g/ha,[4]; application rate 130 g/Ha,70%
same,pest or weed control at 130 g/ha,[5]; application rate 130 g/Ha,40%
same,pest or weed control at 130 g/ha,Setaria faberi (SETFA); application rate 130 g/Ha,70%
same,pest or weed control at 130 g/ha,[6]; application rate 130 g/Ha,80%
COC(=O)c1ccc2cc[n+](CCS(=O)(=O)[O-])nc2c1 [Compound A108],pest or weed control at 500 g/ha,Eleusine indica (ELEIN),30%
same,pest or weed control at 500 g/ha,[1],40%
same,pest or weed control at 500 g/ha,[2],20%
same,pest or weed control at 500 g/ha,[3],50%
same,pest or weed control at 500 g/ha,Lolium perenne (LOLPE),10%
same,pest or weed control at 500 g/ha,[4],70%
same,pest or weed control at 500 g/ha,[5],10%
same,pest or weed control at 500 g/ha,Setaria faberi (SETFA),10%
same,pest or weed control at 500 g/ha,[6],20%
"COC(=O)c1cccc2cc[n+](CCS(=O)(=O)[O-])nc12 [Compound A109, 2-(8-methoxycarbonylcinnolin-2-ium-2-yl)ethanesulfonate]",pest or weed control at 500 g/ha,Eleusine indica (ELEIN),10%
same,pest or weed control at 500 g/ha,[1],20%
same,pest or weed control at 500 g/ha,[2],40%
same,pest or weed control at 500 g/ha,[3],30%
same,pest or weed control at 500 g/ha,Lolium perenne (LOLPE),10%
same,pest or weed control at 500 g/ha,[4],10%
same,pest or weed control at 500 g/ha,[5],10%
same,pest or weed control at 500 g/ha,Setaria faberi (SETFA),10%
same,pest or weed control at 500 g/ha,[6],30%
"N#Cc1cccc2cc[n+](CCS(=O)(=O)[O-])nc12 [Compound A110, 2-(8-cyanocinnolin-2-ium-2-yl)ethanesulfonate]",pest or weed control at 500 g/ha,Eleusine indica (ELEIN),20%
same,pest or weed control at 500 g/ha,[1],30%
same,pest or weed control at 500 g/ha,[2],70%
same,pest or weed control at 500 g/ha,[3],60%
same,pest or weed control at 500 g/ha,Lolium perenne (LOLPE),0%
same,pest or weed control at 500 g/ha,[4],20%
same,pest or weed control at 500 g/ha,[5],40%
same,pest or weed control at 500 g/ha,Setaria faberi (SETFA),20%
same,pest or weed control at 500 g/ha,[6],20%
O=S(=O)([O-])OCC[n+]1nc2ccccc2cc1Cl [Compound A111],pest or weed control at 1000 g/ha,Eleusine indica (ELEIN),20%
same,pest or weed control at 1000 g/ha,[1],0%
same,pest or weed control at 1000 g/ha,[2],0%
same,pest or weed control at 1000 g/ha,[3],30%
same,pest or weed control at 1000 g/ha,Lolium perenne (LOLPE),0%
same,pest or weed control at 1000 g/ha,[4],10%
same,pest or weed control at 1000 g/ha,[5],0%
same,pest or weed control at 1000 g/ha,Setaria faberi (SETFA),0%
same,pest or weed control at 1000 g/ha,[6],0%
O=S(=O)(O)CC[n+]1ccc2cc(-c3ccccc3)ccc2n1 [Compound A112],pest or weed control at 1000 g/ha,Eleusine indica (ELEIN),30%
same,pest or weed control at 1000 g/ha,[1],30%
same,pest or weed control at 1000 g/ha,[2],10%
same,pest or weed control at 1000 g/ha,[3],20%
same,pest or weed control at 1000 g/ha,Lolium perenne (LOLPE),10%
same,pest or weed control at 1000 g/ha,[4],30%
same,pest or weed control at 1000 g/ha,[5],10%
same,pest or weed control at 1000 g/ha,Setaria faberi (SETFA),20%
same,pest or weed control at 1000 g/ha,[6],10%
"CC(C)(C[n+]1ccc2ccccc2n1)C(=O)O [Compound A113, 3-cinnolin-2-ium-2-yl-2,2-dimethyl-propanoic Acid 2,2,2-trifluoroacetate]",pest or weed control at 500 g/ha,Eleusine indica (ELEIN),30%
same,pest or weed control at 500 g/ha,[1],10%
same,pest or weed control at 500 g/ha,[2],10%
same,pest or weed control at 500 g/ha,[3],10%
same,pest or weed control at 500 g/ha,Lolium perenne (LOLPE),20%
same,pest or weed control at 500 g/ha,[4],30%
same,pest or weed control at 500 g/ha,[5],10%
same,pest or weed control at 500 g/ha,Setaria faberi (SETFA),20%
same,pest or weed control at 500 g/ha,[6],40%
O=C(NC(C[n+]1ccc2ccccc2n1)C(=O)O)OCc1ccccc1 (stereo not drawn) [Compound A114],pest or weed control at 500 g/ha,Eleusine indica (ELEIN),30%
same,pest or weed control at 500 g/ha,[1],40%
same,pest or weed control at 500 g/ha,[2],50%
same,pest or weed control at 500 g/ha,[3],50%
same,pest or weed control at 500 g/ha,Lolium perenne (LOLPE),10%
same,pest or weed control at 500 g/ha,[4],20%
same,pest or weed control at 500 g/ha,[5],30%
same,pest or weed control at 500 g/ha,Setaria faberi (SETFA),20%
same,pest or weed control at 500 g/ha,[6],20%
"CC(CC(=O)O)[n+]1ccc2ccccc2n1 (stereo not drawn) [Compound A115, 3-cinnolin-2-ium-2-ylbutanoic Acid 2,2,2-trifluoroacetate]",pest or weed control at 500 g/ha,Eleusine indica (ELEIN),60%
same,pest or weed control at 500 g/ha,[1],40%
same,pest or weed control at 500 g/ha,[2],100%
same,pest or weed control at 500 g/ha,[3],20%
same,pest or weed control at 500 g/ha,Lolium perenne (LOLPE),20%
same,pest or weed control at 500 g/ha,[4],60%
same,pest or weed control at 500 g/ha,[5],20%
same,pest or weed control at 500 g/ha,Setaria faberi (SETFA),30%
same,pest or weed control at 500 g/ha,[6],20%
CC(C(=O)OC(C)(C)C)[n+]1ccc2ccccc2n1 (stereo not drawn) [Compound A116],pest or weed control at 500 g/ha,Eleusine indica (ELEIN),30%
same,pest or weed control at 500 g/ha,[1],50%
same,pest or weed control at 500 g/ha,[2],60%
same,pest or weed control at 500 g/ha,[3],30%
same,pest or weed control at 500 g/ha,Lolium perenne (LOLPE),20%
same,pest or weed control at 500 g/ha,[4],40%
same,pest or weed control at 500 g/ha,[5],10%
same,pest or weed control at 500 g/ha,Setaria faberi (SETFA),30%
same,pest or weed control at 500 g/ha,[6],30%
Cc1cc(C)c2n[n+](CCO)cc(C)c2c1 [Compound A117],pest or weed control at 1000 g/ha,Eleusine indica (ELEIN),60%
same,pest or weed control at 1000 g/ha,[1],20%
same,pest or weed control at 1000 g/ha,[2],30%
same,pest or weed control at 1000 g/ha,[3],20%
same,pest or weed control at 1000 g/ha,Lolium perenne (LOLPE),10%
same,pest or weed control at 1000 g/ha,[4],20%
same,pest or weed control at 1000 g/ha,[5],20%
same,pest or weed control at 1000 g/ha,Setaria faberi (SETFA),30%
same,pest or weed control at 1000 g/ha,[6],20%
Cc1c[n+](CCO)nc2ccccc12 [Compound A118],pest or weed control at 1000 g/ha,Eleusine indica (ELEIN),20%
same,pest or weed control at 1000 g/ha,[1],10%
same,pest or weed control at 1000 g/ha,[2],10%
same,pest or weed control at 1000 g/ha,[3],20%
same,pest or weed control at 1000 g/ha,Lolium perenne (LOLPE),10%
same,pest or weed control at 1000 g/ha,[4],20%
same,pest or weed control at 1000 g/ha,[5],10%
same,pest or weed control at 1000 g/ha,Setaria faberi (SETFA),10%
same,pest or weed control at 1000 g/ha,[6],10%

# — patent US20220046923A1, “HERBICIDAL CINNOLINIUM COMPOUNDS” (SYNGENTA CROP PROTECTION AG, priority 2018, published 2022)
